From ChEMBL document CHEMBL4376834, “Discovery of 4H-Chromen-4-one Derivatives as a New Class of Selective Rho Kinase (ROCK) Inhibitors, which Showed Potent Activity in ex Vivo Diabetic Retinopathy Models” (J Med Chem, 2019)

Tests used:
[1] = target: Leukocyte tyrosine kinase receptor (Homo sapiens, UniProt P29376); assay: Inhibition of recombinant human LTK (450 to end residues) using GEEPLYWSFPAKK as substrate after 40 mins in presence of [gamma-33ATP] by radiometric scintillation counting analysis
[2] = target: Cyclin-dependent kinase-like 2 (Homo sapiens, UniProt Q92772); assay: Inhibition of recombinant full length human CDKL2 in presence of 10 uM ATP by radiometric scintillation counting analysis
[3] = target: Serine/threonine-protein kinase SBK1 (Homo sapiens, UniProt Q52WX2); assay: Inhibition of recombinant full-length human SBK1 using KKLRRTLSVA as substrate incubated for 120 mins in presence of [gamma33P]ATP by radiometric scintillation counting analysis
[4] = target: NT-3 growth factor receptor (Homo sapiens, UniProt Q16288); assay: Inhibition of recombinant human TRKC (510 to end residues) using GEEPLYWSFPAKK as substrate incubated for 40 mins in presence of [gamma33P]ATP by radiometric scintillation counting analysis
[5] = target: Inhibitor of nuclear factor kappa-B kinase subunit beta (Homo sapiens, UniProt O14920); assay: Inhibition of recombinant full length human IKKbeta using peptide substrate after 40 mins by [gamma-33ATP] by radiometric scintillation counting analysis
[6] = target: PAS domain-containing serine/threonine-protein kinase (Homo sapiens, UniProt Q96RG2); assay: Inhibition of recombinant human PASK (995 to end residues) using KKLNRTLSFAEPG as substrate measured after 40 mins in presence of [gamma33P]ATP by radiometric scintillation counting analysis
[7] = target: Serine/threonine-protein kinase ULK3 (Homo sapiens, UniProt Q6PHR2); assay: Inhibition of recombinant human full length ULK3 using casein as substrate incubated for 40 mins in presence of [gamma33P]ATP by radiometric scintillation counting analysis
[8] = Inhibition of activated recombinant human TEC F514V mutant (174 to end residues) using EFPIYDFLPAKKK as substrate incubated for 40 mins in presence of [gamma33P]ATP by radiometric scintillation counting analysis
[9] = target: Serine/threonine-protein kinase VRK2 (Homo sapiens, UniProt Q86Y07); assay: Inhibition of recombinant human VRK2 (1 to 336 residues) using casein as substrate incubated for 40 mins in presence of [gamma33P]ATP by radiometric scintillation counting analysis
[10] = target: Proto-oncogene tyrosine-protein kinase receptor Ret (Homo sapiens, UniProt P07949, V804L); assay: Inhibition of recombinant human Ret V804L mutant (658 to end residues) using KKKVSRSGLYRSP as substrate incubated for 40 mins in presence of [gamma33P]ATP by radiometric scintillation counting analysis
[11] = target: Mitogen-activated protein kinase 13 (Homo sapiens, UniProt O15264); assay: Inhibition of recombinant human full length SAPK4 using myelin basic protein as substrate incubated for 40 mins in presence of [gamma33P]ATP by radiometric scintillation counting analysis
[12] = target: Serine/threonine-protein kinase PAK 3 (Homo sapiens, UniProt O75914); assay: Inhibition of recombinant full-length human PAK3 using RRRLSFAEPG as substrate measured after 40 mins in presence of [gamma33P]ATP by radiometric scintillation counting analysis
[13] = target: Serine/threonine-protein kinase PAK 4 (Homo sapiens, UniProt O96013); assay: Inhibition of recombinant human PAK4 (295 to end residues) using myelin basic protein as substrate measured after 40 mins in presence of [gamma33P]ATP by radiometric scintillation counting analysis
[14] = target: Cyclin-dependent kinase 5/CDK5 activator 1 (Homo sapiens, UniProt Q00535); assay: Inhibition of recombinant full length human CDK5/p35 using histone H1 as substrate incubated for 40 mins in presence of [gamma-33ATP] by radiometric scintillation counting analysis; assay type: protein-complex assay
CDC7/Cyclin B1 = CDC7/Cyclin B1 (Homo sapiens, UniProt O00311+P14635); assay: Inhibition of recombinant full length human CDC7/CyclinB1 using Histone H1 as substrate incubated for 120 mins in presence of [gamma-33ATP] by radiometric scintillation counting analysis; assay type: protein-complex assay
[15] = target: DNA-dependent protein kinase catalytic subunit (Homo sapiens, UniProt P78527); assay: Inhibition of recombinant full length human DNA-PK using GST-cMyc-p53 as substrate incubated for 40 mins by fluorescence assay
[16] = target: Cyclin-dependent kinase-like 1 (Homo sapiens, UniProt Q00532); assay: Inhibition of recombinant human CDKL1 (1 to 303 residues) using RRRFRPASPLRGP as substrate incubated for 120 mins in presence of [gamma-33ATP] by radiometric scintillation counting analysis
[17] = target: Protein-tyrosine kinase 6 (Homo sapiens, UniProt Q13882); assay: Inhibition of recombinant full length human BRK using poly(Glu, Tyr) 4:1 as substrate incubated for 40 mins in presence of [gamma-33ATP] by radiometric scintillation counting analysis
[18] = target: Interleukin-1 receptor-associated kinase 1 (Homo sapiens, UniProt P51617); assay: Inhibition of human recombinant IRAK1 (194 to end residues) using myelin basic protein as substrate after 40 mins by [gamma-33ATP] by radiometric scintillation counting analysis
[19] = target: Tyrosine-protein kinase receptor UFO (Homo sapiens, UniProt P30530, Q764R); assay: Inhibition of human recombinant Axl Q764R mutant (473 to end residues) using KKSRGDYMTMQIG as substrate measured after 40 mins in presence of [gamma33P]ATP by radiometric scintillation counting analysis
[20] = target: Serine/threonine-protein kinase pim-3 (Homo sapiens, UniProt Q86V86); assay: Inhibition of recombinant human Pim3 (2 to end residues) using RSRHSSYPAGT as substrate incubated for 40 mins in presence of [gamma33P]ATP by radiometric scintillation counting analysis
[21] = Inhibition of recombinant human TIE2 Q939H/Q940H/ R849W triple mutant (771 to end residues) using EFPIYDFLPAKKK as substrate incubated for 40 mins in presence of [gamma33P]ATP by radiometric scintillation counting analysis
Ephrin type-A receptor 3 = Ephrin type-A receptor 3 (Homo sapiens, UniProt P29320); assay: Inhibition of recombinant human EphA3 (578 to end residues) using poly(Glu, Tyr) 4:1 as substrate measured after 40 mins in presence of [gamma33ATP] by radiometric scintillation counting analysis
[22] = target: Protein kinase C alpha type (Homo sapiens, UniProt P17252); assay: Inhibition of recombinant human full length PKCalpha using histone as substrate incubated for 40 mins in presence of [gamma33P]ATP by radiometric scintillation counting analysis
Ephrin type-B receptor 4 = Ephrin type-B receptor 4 (Homo sapiens, UniProt P54760); assay: Inhibition of recombinant human EphB4 (561 to end residues) using poly(Glu, Tyr) 4:1 as substrate after 40 mins in presence of [gamma-33ATP] by radiometric scintillation counting analysis
LIM domain kinase 1 = LIM domain kinase 1 (Homo sapiens, UniProt P53667); assay: Inhibition of recombinant human LIMK1 (285 to 638 residues) using cofilin as substrate after 40 mins in presence of [gamma-33ATP] by radiometric scintillation counting analysis

Measured: IC50

Chain of Mitogen-activated protein kinase 13 (O15264 whole entry): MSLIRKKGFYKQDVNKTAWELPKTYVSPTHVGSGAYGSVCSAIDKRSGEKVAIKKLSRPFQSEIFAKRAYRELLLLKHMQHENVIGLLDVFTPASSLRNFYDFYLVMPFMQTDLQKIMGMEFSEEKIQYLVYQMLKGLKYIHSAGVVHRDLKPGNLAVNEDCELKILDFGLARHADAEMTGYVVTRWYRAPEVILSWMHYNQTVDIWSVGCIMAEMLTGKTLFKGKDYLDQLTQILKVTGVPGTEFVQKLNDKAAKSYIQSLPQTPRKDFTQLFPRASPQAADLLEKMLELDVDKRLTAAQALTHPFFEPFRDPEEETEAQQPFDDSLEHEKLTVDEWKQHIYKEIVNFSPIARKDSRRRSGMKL
Chain of Serine/threonine-protein kinase PAK 3 (O75914 whole entry): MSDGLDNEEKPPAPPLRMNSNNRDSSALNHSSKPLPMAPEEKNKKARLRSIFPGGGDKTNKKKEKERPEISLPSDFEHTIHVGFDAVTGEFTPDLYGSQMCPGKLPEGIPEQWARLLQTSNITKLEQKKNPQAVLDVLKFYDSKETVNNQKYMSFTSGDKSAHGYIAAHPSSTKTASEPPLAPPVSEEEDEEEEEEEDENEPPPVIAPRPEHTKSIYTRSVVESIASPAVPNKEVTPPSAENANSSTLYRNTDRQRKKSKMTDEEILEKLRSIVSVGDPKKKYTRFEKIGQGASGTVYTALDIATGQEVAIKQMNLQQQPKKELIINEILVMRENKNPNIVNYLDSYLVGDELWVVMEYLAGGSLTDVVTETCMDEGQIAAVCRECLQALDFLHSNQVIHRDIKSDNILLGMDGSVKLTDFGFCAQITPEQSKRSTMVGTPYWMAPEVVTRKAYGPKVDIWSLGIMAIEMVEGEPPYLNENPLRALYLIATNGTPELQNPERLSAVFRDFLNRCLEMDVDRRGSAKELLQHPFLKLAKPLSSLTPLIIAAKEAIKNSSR
Chain of Cyclin-dependent kinase-like 2 (Q92772 whole entry): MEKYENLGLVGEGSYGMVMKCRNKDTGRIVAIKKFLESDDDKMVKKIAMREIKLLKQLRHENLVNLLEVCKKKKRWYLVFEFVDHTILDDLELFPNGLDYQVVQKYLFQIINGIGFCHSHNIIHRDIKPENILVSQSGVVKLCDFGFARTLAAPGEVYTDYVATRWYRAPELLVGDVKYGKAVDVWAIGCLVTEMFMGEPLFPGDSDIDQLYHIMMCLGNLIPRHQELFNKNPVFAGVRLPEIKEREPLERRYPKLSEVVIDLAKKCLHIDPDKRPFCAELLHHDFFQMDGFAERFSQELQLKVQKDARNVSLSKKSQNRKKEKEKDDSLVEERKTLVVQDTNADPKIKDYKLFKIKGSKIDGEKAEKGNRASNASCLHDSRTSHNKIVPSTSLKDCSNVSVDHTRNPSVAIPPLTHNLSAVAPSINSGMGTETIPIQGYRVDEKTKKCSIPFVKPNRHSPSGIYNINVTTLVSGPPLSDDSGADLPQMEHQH
Chain of Cyclin-dependent kinase-like 1 (Q00532 whole entry, the tested form may be a part): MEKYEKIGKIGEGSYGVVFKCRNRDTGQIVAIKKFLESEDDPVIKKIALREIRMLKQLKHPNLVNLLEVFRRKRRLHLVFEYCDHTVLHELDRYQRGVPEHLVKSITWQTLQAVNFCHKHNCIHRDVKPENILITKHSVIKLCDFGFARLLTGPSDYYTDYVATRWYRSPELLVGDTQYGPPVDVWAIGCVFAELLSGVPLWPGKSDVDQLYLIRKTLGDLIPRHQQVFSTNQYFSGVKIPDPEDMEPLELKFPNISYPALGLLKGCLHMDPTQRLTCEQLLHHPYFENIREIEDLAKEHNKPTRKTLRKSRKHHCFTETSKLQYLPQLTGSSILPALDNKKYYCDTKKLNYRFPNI
Chain of Serine/threonine-protein kinase VRK2 (Q86Y07 whole entry, the tested form may be a part): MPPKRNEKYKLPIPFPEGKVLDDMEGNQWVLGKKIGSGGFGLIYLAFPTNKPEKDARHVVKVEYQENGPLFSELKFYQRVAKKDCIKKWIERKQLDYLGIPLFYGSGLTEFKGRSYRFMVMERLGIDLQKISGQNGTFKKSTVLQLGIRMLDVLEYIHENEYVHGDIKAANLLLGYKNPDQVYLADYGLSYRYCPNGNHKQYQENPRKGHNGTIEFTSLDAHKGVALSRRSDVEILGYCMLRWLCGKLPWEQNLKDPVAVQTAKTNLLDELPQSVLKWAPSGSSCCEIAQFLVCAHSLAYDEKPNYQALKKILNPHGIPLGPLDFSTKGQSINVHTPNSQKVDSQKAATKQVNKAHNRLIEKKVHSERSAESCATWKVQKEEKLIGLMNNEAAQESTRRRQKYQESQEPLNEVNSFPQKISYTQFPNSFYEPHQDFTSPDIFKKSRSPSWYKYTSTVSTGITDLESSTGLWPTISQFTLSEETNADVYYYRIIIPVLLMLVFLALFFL
Chain of Serine/threonine-protein kinase ULK3 (Q6PHR2 whole entry): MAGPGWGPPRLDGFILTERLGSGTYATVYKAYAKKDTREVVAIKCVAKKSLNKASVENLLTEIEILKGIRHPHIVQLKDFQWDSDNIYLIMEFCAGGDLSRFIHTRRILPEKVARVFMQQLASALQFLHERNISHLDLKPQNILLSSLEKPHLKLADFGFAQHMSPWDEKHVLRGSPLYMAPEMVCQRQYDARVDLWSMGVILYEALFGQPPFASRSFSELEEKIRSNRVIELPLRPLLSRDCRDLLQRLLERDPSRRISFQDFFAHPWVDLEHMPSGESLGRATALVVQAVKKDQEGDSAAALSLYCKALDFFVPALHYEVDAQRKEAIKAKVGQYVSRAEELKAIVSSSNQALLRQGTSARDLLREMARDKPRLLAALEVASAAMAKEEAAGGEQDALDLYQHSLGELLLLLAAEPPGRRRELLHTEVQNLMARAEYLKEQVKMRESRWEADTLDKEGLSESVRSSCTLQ
Chain of PAS domain-containing serine/threonine-protein kinase (Q96RG2 whole entry, the tested form may be a part): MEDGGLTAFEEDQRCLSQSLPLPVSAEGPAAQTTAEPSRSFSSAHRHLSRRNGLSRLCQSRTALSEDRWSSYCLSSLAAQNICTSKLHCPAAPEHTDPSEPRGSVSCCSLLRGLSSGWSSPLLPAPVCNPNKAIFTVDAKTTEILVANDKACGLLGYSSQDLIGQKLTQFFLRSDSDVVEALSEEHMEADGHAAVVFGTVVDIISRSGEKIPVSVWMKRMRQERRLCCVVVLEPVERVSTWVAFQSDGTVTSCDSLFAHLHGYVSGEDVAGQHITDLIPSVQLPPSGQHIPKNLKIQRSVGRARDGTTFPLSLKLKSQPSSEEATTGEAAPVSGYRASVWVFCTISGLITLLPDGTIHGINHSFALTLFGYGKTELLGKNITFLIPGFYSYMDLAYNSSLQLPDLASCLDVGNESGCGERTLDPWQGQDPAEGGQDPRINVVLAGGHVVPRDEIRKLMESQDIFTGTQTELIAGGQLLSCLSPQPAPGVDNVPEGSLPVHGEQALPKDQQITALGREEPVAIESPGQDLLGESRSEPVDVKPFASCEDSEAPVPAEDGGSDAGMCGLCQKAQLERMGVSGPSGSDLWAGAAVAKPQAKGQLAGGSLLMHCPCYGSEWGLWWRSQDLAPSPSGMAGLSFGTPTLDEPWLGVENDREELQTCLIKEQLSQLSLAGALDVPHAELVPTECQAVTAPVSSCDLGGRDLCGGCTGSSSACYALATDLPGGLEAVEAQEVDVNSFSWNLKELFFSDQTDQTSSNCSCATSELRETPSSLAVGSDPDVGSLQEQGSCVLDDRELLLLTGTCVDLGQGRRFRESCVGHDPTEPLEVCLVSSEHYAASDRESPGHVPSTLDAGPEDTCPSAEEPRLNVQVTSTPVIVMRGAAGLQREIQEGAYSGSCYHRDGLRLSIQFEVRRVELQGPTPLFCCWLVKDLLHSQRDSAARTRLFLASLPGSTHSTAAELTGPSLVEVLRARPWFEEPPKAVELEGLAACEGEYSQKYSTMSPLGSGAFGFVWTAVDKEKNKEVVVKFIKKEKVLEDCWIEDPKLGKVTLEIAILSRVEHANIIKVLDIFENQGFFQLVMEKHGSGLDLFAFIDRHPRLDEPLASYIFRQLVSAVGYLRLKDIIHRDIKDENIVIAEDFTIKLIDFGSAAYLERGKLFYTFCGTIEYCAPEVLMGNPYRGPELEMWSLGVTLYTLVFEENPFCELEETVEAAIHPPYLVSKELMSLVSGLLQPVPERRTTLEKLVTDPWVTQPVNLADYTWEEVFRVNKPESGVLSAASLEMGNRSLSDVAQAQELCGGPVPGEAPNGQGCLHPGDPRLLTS
Chain of Protein-tyrosine kinase 6 (Q13882 whole entry): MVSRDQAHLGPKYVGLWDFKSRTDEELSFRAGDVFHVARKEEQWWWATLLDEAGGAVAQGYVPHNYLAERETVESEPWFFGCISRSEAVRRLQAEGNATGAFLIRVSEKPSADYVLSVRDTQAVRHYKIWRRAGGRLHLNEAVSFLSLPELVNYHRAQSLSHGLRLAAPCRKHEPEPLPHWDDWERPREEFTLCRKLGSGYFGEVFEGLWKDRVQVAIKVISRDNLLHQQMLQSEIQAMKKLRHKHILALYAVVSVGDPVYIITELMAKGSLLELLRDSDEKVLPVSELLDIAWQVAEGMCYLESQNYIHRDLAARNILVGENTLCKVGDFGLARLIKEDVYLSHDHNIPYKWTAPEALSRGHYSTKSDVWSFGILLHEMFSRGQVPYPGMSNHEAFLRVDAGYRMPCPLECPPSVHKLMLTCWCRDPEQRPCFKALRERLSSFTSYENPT

CN(C)c1ccc(C(=O)Nc2cccc(NC(=O)COc3ccc4c(=O)ccoc4c3)c2)cc1
> 10 µM: [1] | [2] | [3] | [4] | [5] | [6] | [7] | [8] | [9] | [10] | [11] | [12] | [13] | [14] | CDC7/Cyclin B1 | [15] | [16] | [17] | [18] | [19] | [20] | [21] | Ephrin type-A receptor 3 | [22] | Ephrin type-B receptor 4 | LIM domain kinase 1
